Measurements reported in patent US11578054B2, “Compounds useful as immunomodulators” (Bristol-Myers Squibb Company, priority 2018, dated 2023).
pIC50: −log10 of the molar value.

Target: PD-1/PD-L1 (Homo sapiens (Human), UniProt Q9NZQ7)
Experiment: PD-1/PD-L1 Homogenous Time-Resolved Fluorescence (HTRF) binding assay
Conditions: PD-L1-His 10 nM, PD-1-Ig 20 nM
From the text: The ability of the compounds of formula (I) to bind to PD-L1 was investigated using a PD-1/PD-L1 Homogenous Time-Resolved Fluorescence (HTRF) binding assay.
Homogenous Time-Resolved Fluorescence (HTRF) binding assay.
The interaction of PD-1 and PD-L1 can be assessed using soluble, purified preparations of the extracellular domains of the two proteins. The PD-1 and PD-L1 protein extracellular domains were expressed as fusion proteins with detection tags, for PD-1, the tag was the Fc portion of Immunoglobulin (PD-1-Ig) and for PD-L1 it was the 6 histidine motif (PD-L1-His). All binding studies were performed in an HTRF assay buffer consisting of dPBS supplemented with 0.1% […] bovine serum albumin and 0.05% (v/v) Tween-20. For the h/PD-L1-His binding assay, inhibitors were pre-incubated with PD-L1-His (10 nM final) for 15m in 4 μl of assay buffer, followed by addition of PD-1-Ig (20 nM final) in 1 µl of assay buffer and further incubation for 15m. HTRF detection was achieved using europium crypate-labeled anti-Ig (1 nM final) and allophycocyanin (APC) labeled anti-His (20 nM final). Antibodies were diluted in HTRF detection buffer and 5 μl was dispensed on top of the binding reaction. The reaction mixture was allowed to equilibrate for 30 minutes and the resulting signal (665 nm/620 nm ratio) was obtained using an EnVision fluorometer. Additional binding assays were established between the human proteins PD-1-Ig/PD-L2-His (20 & 5 nM, respectively) and CD8O-His/PD-L1-Ig (100 & 10 nM, respectively).
Recombinant Proteins: Human PD-1 (25-167) with a C-terminal human Fc domain of immunoglobulin G (Ig) epitope tag [hPD-1 (25-167)-3S-IG] and human PD-L1 (18-239) with a C-terminal His epitope tag [hPD-L1(18-239)-TVMV-His] were expressed in HEK293T cells and purified sequentially by ProteinA affinity chromatography and size exclusion chromatography. Human PD-L2-His and CD8O-His was obtained through commercial sources.
The table below lists the IC50 values for representative examples of this disclosure measured in the PD-1/PD-L1 Homogenous Time-Resolved Fluorescence (HTRF) binding assay.

PD-1/PD-L1, sequence (Q9NZQ7 other isoform, or with tags, fused parts or gaps): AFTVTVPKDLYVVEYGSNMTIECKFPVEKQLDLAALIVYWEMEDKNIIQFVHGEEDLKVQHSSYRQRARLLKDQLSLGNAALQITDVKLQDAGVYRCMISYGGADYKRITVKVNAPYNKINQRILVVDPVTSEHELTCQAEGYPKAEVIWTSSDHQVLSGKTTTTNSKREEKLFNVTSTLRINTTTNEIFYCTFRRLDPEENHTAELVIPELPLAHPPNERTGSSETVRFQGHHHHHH

- pIC50: 9.00
SMILES: N#Cc1cncc(COc2cc(OC3CCc4c(-c5cccc(OCCCNC[C@H](O)CO)c5Cl)cccc43)c(Cl)cc2CN[C@@H](CCO)C(=O)O)c1 (stereo partly drawn) [Example 1021, (5-Chloro-4-((4-(2-chloro-3-(3-(((S)-2,3-dihydroxypropyl)amino)propoxy)phenyl)-2,3-dihydro-1H-inden-1-yl)oxy)-2-((5-cyanopyridin-3-yl)methoxy)benzyl)-L-homoserine]
